# Test results as given in US7576062B2, “Compounds with growth hormone releasing properties” (Novo Nordisk A/S, priority 1998, dated 2009).
# Key:
# carboxypeptidase Y and B = assay: Metabolic stability in carboxypeptidase mix (ESMS, SIM of molecular ion); type: in vitro ADME; conditions: 0.025 mg/ml, 50 mM ammoniumacetate pH 4.5, 37° C., 24 h in degradation solution, enzyme:substrate approx. 1:5
# Method: (§1) The solution is left at 37° C. overnight.
# (§2) Identification of degradation products furthermore involved the use of plasma desorption mass spectrometry (PDMS) with sample application on nitrocellulose coated targets and standard instrumental settings. The accuracy of the hereby determined masses is generally better than 0.1%.
# (§3) Separation and isolation of degradation products was done using a HY-TACH C-18 reverse phase 4.6×105 mm HPLC column (Hewlett-Packard Company, Palo Alto, Calif.) with a standard acetonitril: TFA separation gradient. The HPLC system used was HP1090M (Hewlett-Packard Company, Palo Alto, Calif.).
# [1] = test system: trypsin, chymotrypsin and elastase; assay: Metabolic stability in pancreatic enzyme mix (ESMS, SIM of molecular ion); type: in vitro ADME; conditions: 0.025 mg/ml, 100 mM ammoniumbicarbonate pH 8.0, 37° C., 24 h in degradation solution, enzyme:substrate approx. 1:5
# Method: as §1, §2, §3
substance,measurement,setting,value
Glucagon,Carboxy-peptidase mix (stability),carboxypeptidase Y and B,− (Unstable (more than 20% decrease in SIM signal after 24 h in degradation solution))
same,Pan. enzyme mix (stability),[1],− (Unstable (more than 20% decrease in SIM signal after 24 h in degradation solution))
